# According to US20250275976A1, “Methods of Treating Neuroinflammatory Conditions” (Athira Pharma, Inc., priority 2022, published 2025):
# “And” between values parts separate entries of the source, which are not always exact repeats. Equal entries are not always repeated. “Also recorded” adds a separate entry of the source. Where two headings read alike, the source gives them in different places. Square brackets hold non-standard residues; d marks the D form. Peptide text beside a SMILES is read from it. * marks the point of attachment. pY = N[CH](Cc1ccc(OP(=O)(O)O)cc1)C(=O)O; Hexanoyl = CCCCCC(=O)*; Ahx = NCCCCCC(=O)O
# Key:
# male CD-1 mice = assay: T-maze spontaneous alternation, LPS-induced cognitive deficit; assay type: in vivo, mouse; conditions: for Spontaneous alternation (%) Mean: LPS 250 μg/kg i.p.; for Recovery (%): saline/vehicle = 100%, LPS/vehicle = 0%; for Reversal of LPS-induced cognitive deficit in T-maze (result in words): ANOVA, Fisher's PLSD, p<0.05, doses as in the value
# From the text: Encephalitis refers to inflammation of the brain that may result in brain swelling fever, headache, confusion, and seizures. The source of neuroinflammation can vary widely, including due to viral, bacterial, parasitic, or fungal infection or due to autoimmune diseases. Lipopolysaccharide (LPS) is a bacterial endotoxin that induces an intense neuroinflammatory reaction and has been associated with cognitive decline. The ability of Compound A19 to reverse cognitive decline induced by LPS in a mouse model of encephalitis was studied using a T-maze assay. In a separate substantially similar assay, Compounds 1a and 5a were also assessed.
# Spontaneous and continuous alternation is the innate tendency of rodents to alternate free choices in a T-maze (T-CAT) over a series of successive runs. This sequential procedure relies on working memory and is sensitive to various pharmacological manipulations affecting memory processes. The present studies were conducted to evaluate the abilities of Compound A19, Compound 1a and Compound 5a to reverse LPS-induced cognitive deficit in the T-maze assay.
# Compound A19 was dissolved in 0.9% NaCl (saline) and vortexed periodically until complete dissolution and with the pH adjusted between 7.4 and 7.8. Compound A19 was used in concentrations of 0.125, 0.1, 0.05, 0.025 and 0.0125 mg/ml which when given in a volume of 10 ml/kg result in doses of 1.25, 1, 0.5, 0.25 and 0.125 mg/kg, respectively. Compound 1a was dissolved at 160 mg/ml in 100% DMSO and vortexed until complete dissolution. Then the above stock solution was diluted in 20% PEG-400 and 78% 0.9% NaCl, whereby the stock solution comprised 2% of the final solution. Compound 1a was used in concentrations of 0.05, 0.2, 0.8, 1.6 and 3.2 mg/ml which when given in a volume of 10 ml/kg result in doses of 0.5, 2, 8, 16 and 32 mg/kg, respectively. Compound 5a was dissolved at 100 mg/ml in 100% DMSO and vortexed until complete dissolution. Then the above stock solution was diluted in 20% PEG-400 and 78% 0.9% NaCl, whereby the stock solution comprised 2% of the final solution. Compound 5a was used in concentrations of 0.125, 0.25, 0.5, 1 and 2 mg/ml which when given in a volume of 10 ml/kg result in doses of 1.25, 2.5, 5, 10 and 20 mg/kg, respectively.
# Memantine was dissolved in saline. Memantine was used in concentration of 0.1 and 0.01 mg/ml, which when given in a volume of 10 ml/kg result in a dose of 1 and 0.1 mg/kg, respectively. Memantine is approved for symptomatic treatment of Alzheimer's disease was used as a reference compound.
# LPS was dissolved in saline and prepared at a concentration of 0.0125 mg/ml and given intraperitoneally (i.p.) at a dosage volume of 20 ml/kg to yield a dose of 0.25 mg/kg ([…]).
# Four to five weeks old male CD-1 mice (Janvier; Le Genest St Isle - France) were used for the study.
# LPS was injected i.p. 2 weeks prior the T-maze trial. Compound 1a was tested at doses of 0.5, 2, 8, 16, and 32 mg/kg administered orally (p.o.) for 14 days with last treatment given 60 min before the T-maze trial. Compound 5a was tested at the doses of 1.25, 2.5, 5, 10, and 20 mg/kg administered orally (p.o.) for 14 days with last treatment given 60 min before the T-maze trial. LPS was injected i.p. 2 weeks prior the T-maze trial.
# The T-maze apparatus was made of gray Plexiglas with a main stem (55 cm long×10 cm wide×20 cm high) and two arms (30 cm long×10 cm wide×20 cm high) positioned at a 90-degree angle relative to the main stem. A start box (15 cm long×10 cm wide) was separated from the main stem by a guillotine door. Horizontal doors were also provided to close specific arms during the force choice alternation task.
# The experimental protocol consisted of a single session, which started with one “forced-choice” trial, followed by 14 “free-choice” trials. In the “forced-choice” trial, the animal was confined 5 seconds in the start arm and was then released while either the left or right goal arm was blocked by a horizontal door. […]
# Prp-TDP43^A315T mice = assay type: in vivo
# Experimental: Extranuclear accumulation of TDP-43 protein is a pathological hallmark of a number of neurological diseases. […] Male Prp-TDP43^A315T mice (N=10 mice per group) at 3 weeks of age were administered daily treatments of test compounds. Compound A19 was administered via subcutaneous injection, and Compound 5a and Compound 6a were administered via oral gavage. After 2 months of treatment, plasma samples were collected for cytokine quantification. […] Plasma IL-6 and TNF-α cytokine expression levels were determined using the ELISA method. The submandibular vein was punctured with a lancet and a blood drop was collected directly on a microtube containing EDTA as anticoagulant. Samples were centrifuged for 15 minutes at 1000×g at 4° C. within 20 minutes of collection. 20 μl of plasma supernatant was stored at −20° C. before ELISA analysis.
# Plasma was diluted at 1:10 in sterile PBS, and IL-6 and TNF-α quantification was performed in duplicate for each animal using 10 μl of sample per well in 96-well plates using the ELISA method (IL-6: Signa-Aldrich Cat #RAB0308, TNF-α: Sigma-Aldrich Cat #RAB0477). Statistical analysis was carried out by 2-way ANOVA with Dunnett's multiple comparisons post-test with compound-treated samples compared to vehicle-treated samples.
# [1] = system: Rat primary cortical neuron cultures; assay: Neuroprotection of rat primary cortical neurons against neurotoxic insults (Cell Titer-Glo viability); assay type: cell-based; conditions: for Statistical significance vs. insult control (cell viability): Positive Control MK-801 (1 uM)
# From the text: HGF/MET signaling activation is expected to protect cells, including neurons, from cell death. […] Hydrogen peroxide (H2O2) treatment produces toxic oxidative stress. Bacteria-derived lipopolysaccharide (LPS) treatment induces inflammatory cell death. Treatment with excess glutamate (Glut) produces excitotoxicity in neuron cultures. Treatment with 1-methyl-4-phenylpyridinium (MPP^+) causes cell death by inhibition of mitochondrial function.
# Cells were then subjected to individual conditional insults for 24 hours at the following concentrations: H2O2 at 1 uM, LPS at 1 uM, glutamate at 25 uM, or MPP+ at 500 uM. All treatments contained recombinant human HGF (R&D Systems) at a concentration of 5 ng/ml. MK-801 (Dizocilpine) is a pore blocker of the N-Methyl-D-aspartate (NMDA) receptor, a glutamate receptor, and was used as a positive control.
# Data was normalized to DMSO+HGF control set at 100% cell viability.
# Data are reported as statistical significance vs. insult control, with NS=not significant, +=p<0.05, ++=p<0.01, and +++=p<0.001.
# [2] = system: Rat primary cortical neuron cultures; conditions: LPS 24 h
# [3] = system: Rat primary cortical neuron cultures; assay: Neuroprotection of rat cortical neurons against LPS challenge (Cell Titer-Glo); conditions: at at least one dose tested
# [4] = 2 months of treatment, doses as in the value
# [5] = insult alone 24 h (H2O2 1 uM, Glutamate 25 uM, LPS 1 uM, MPP+ 500 uM), Compound 1a study, Table 2
# [6] = insult alone (H2O2 1 uM, Glutamate 25 uM, LPS 1 uM, MPP+ 500 uM), A19 active metabolite study, Table 3
compound,measurement,setting,value
CCCCCC(=O)NC(Cc1ccc(OP(=O)(O)O)cc1)C(=O)NC(C(=O)NCCCCCC(N)=O)C(C)CC (centres unmarked) [Compound A19] (Hexanoyl-[pY]-Ile-[Ahx]-NH2; configuration not given here),Spontaneous alternation (%) Mean,"male CD-1 mice; A19 0.125 mg/kg s.c. daily 14 days, 0.125 mg/kg",42% and 42.1%
same,Recovery (%),"male CD-1 mice; A19 0.125 mg/kg s.c., 0.125 mg/kg",-12%
same,Spontaneous alternation (%) Mean,"male CD-1 mice; A19 0.25 mg/kg s.c. daily 14 days, 0.25 mg/kg",60%
same,Recovery (%),male CD-1 mice; A19 0.25 mg/kg s.c.,62%
same,Spontaneous alternation (%) Mean,"male CD-1 mice; A19 0.5 mg/kg s.c. daily 14 days, 0.5 mg/kg",64% and 64.3%
same,Recovery (%),male CD-1 mice; A19 0.5 mg/kg s.c.,79%
same,Spontaneous alternation (%) Mean,"male CD-1 mice; A19 1 mg/kg s.c. daily 14 days, 1 mg/kg",61% and 60.7%
same,Recovery (%),male CD-1 mice; A19 1 mg/kg s.c.,65%
same,Spontaneous alternation (%) Mean,"male CD-1 mice; A19 1.25 mg/kg s.c. daily 14 days, 1.25 mg/kg",61% and 60.7%
same,Recovery (%),"male CD-1 mice; A19 1.25 mg/kg s.c., 1.25 mg/kg",58%
same,Reversal of LPS-induced cognitive deficit in T-maze (result in words),male CD-1 mice,significant at all doses except at 0.125 mg/kg; also recorded: reversed the LPS-induced cognitive disruption
same,Significant decrease in plasma cytokine expression after 2 months of treatment: IL-6,Prp-TDP43^A315T mice; 0.005 mg/kg SC daily,++++ (++++ = p < 0.0001)
same,Significant decrease in plasma cytokine expression after 2 months of treatment: TNF-α,Prp-TDP43^A315T mice; 0.005 mg/kg SC daily,++++ (++++ = p < 0.0001)
same,Significant decrease in plasma cytokine expression after 2 months of treatment: TNF-α,Prp-TDP43^A315T mice; 0.01 mg/kg SC daily,+ (+ = p < 0.05)
same,Significant decrease in plasma cytokine expression after 2 months of treatment: IL-6,Prp-TDP43^A315T mice; 0.03 mg/kg SC daily,+ (+ = p < 0.05)
same,Plasma IL-6 expression (result in words),Prp-TDP43^A315T mice; [4],"significantly reduced TL-6 expression at doses of 0.005, 0.01, and 0.03 mg/kg"
same,Plasma TNF-α expression (result in words),Prp-TDP43^A315T mice; [4],significantly reduced TNF-α expression at 0.005 and 0.01 mg/kg
"OO [Compound H2O2, Hydrogen peroxide, reference compound]",Insult effect (% viability vs vehicle),[1]; [5],64.23%
same,Insult effect (% viability vs vehicle),[1]; [6],59.35%
"C[n+]1ccc(-c2ccccc2)cc1 [MPP+, 1-methyl-4-phenylpyridinium, reference compound]",Insult effect (% viability vs vehicle),[1]; [5],49.85%
same,Insult effect (% viability vs vehicle),[1]; [6],54.3%
CCC(C)CN1CC2N(C(=O)c3ccc(OC(F)F)cc3)CCC(=O)N2[C@@H](C)C1=O (some centres unmarked) [Compound 2a],Significance of neuroprotection vs 1 uM LPS,[2]; dose 0.1 nM,+++ (+++ indicates p<0.001)
same,Significance of neuroprotection vs 1 uM LPS,[2]; dose 1 nM,+++ (+++ indicates p<0.001)
same,Significance of neuroprotection vs 1 uM LPS,[2]; dose 10 nM,+++ (+++ indicates p<0.001)
same,Significance of neuroprotection vs 1 uM LPS,[2]; dose 100 nM,+++ (+++ indicates p<0.001)
same,Significance of neuroprotection vs 1 uM LPS,[2]; dose 1 μM,+++ (+++ indicates p<0.001)
same,Protection of primary neurons from LPS-stimulated inflammatory toxicity (in words),[3],protected primary neurons from LPS-stimulated inflammatory toxicity
"C[C@]12N[C@H](Cc3ccccc31)c1ccccc12 [MK-801, Dizocilpine, reference compound]",Statistical significance vs. insult control (cell viability),[1]; Glutamate (25 uM) insult,+++ (+++=p<0.001)
same,Statistical significance vs. insult control (cell viability),[1]; H2O2 (1 uM) insult,+++ (+++=p<0.001)
same,Statistical significance vs. insult control (cell viability),[1]; LPS (1 uM) insult,+++ (+++=p<0.001)
same,Statistical significance vs. insult control (cell viability),[1]; MPP+ (500 uM) insult,+++ (+++=p<0.001)
"CC12CC3CC(C)(C1)CC(N)(C3)C2 [Memantine, reference compound]",Reversal of LPS-induced cognitive deficit in T-maze (result in words),male CD-1 mice,significant at both doses
same,Spontaneous alternation (%) Mean,male CD-1 mice; Memantine 0.1 mg/kg i.p. daily 14 days,64% and 63.6%
same,Recovery (%),male CD-1 mice; Memantine 0.1 mg/kg i.p.,76%
same,Spontaneous alternation (%) Mean,male CD-1 mice; Memantine 1 mg/kg i.p. daily 14 days,54% and 54.3%
same,Recovery (%),male CD-1 mice; Memantine 1 mg/kg i.p.,38%
"N[C@@H](CCC(=O)O)C(=O)O [Glutamate, glutamate, reference compound]",Insult effect (% viability vs vehicle),[1]; [5],49.55%
same,Insult effect (% viability vs vehicle),[1]; [6],54.4%
